The target in this experiment is T1, glycine-binding site of the NMDA receptor channel (Rattus norvegicus, UniProt P35439).
T1 construct: from tissue; host or cells: rat brain cortex and hippocampus membrane homogenate (male Wistar rats, Charles River)
In words: Receptor binding test, displacement of (3H)-MDL 105.519 on rat brain membrane homogenates. The conditions noted are these: rat cortex and hippocampus membrane homogenate; for inhibition at 10 µM: (3H)-MDL 105.519; for Ki: 1 nmol/l (3H)-MDL 105.519, IC50 converted using Cheng-Prusoff equation. The procedure: The investigations for determining the affinity of the γ-lactone compounds of the general formula I according to the invention for the glycine-binding site of the NMDA receptor channel were performed on brain membrane homogenates (homogenate of cortex and hippocampus area from the brain of male rats, Wistar strain, Charles River, WIGA GmbH, Sulzbach, Germany), as described in B. M. Baron et al., Journal of Pharmacology and Experimental Therapeutics, vol. 279, pages 62-68, 1996. The corresponding literature description is hereby introduced as a reference and is deemed to be part of the disclosure.
To this end, the cortex and hippocampus were dissected out of freshly harvested rat brains and homogenised with ice cooling in 5 mmol/l of TRIS-acetate buffer, 0.32 mol/l of sucrose, pH 7.4 (10 ml/g fresh weight) using a Potter homogeniser (Braun, Melsungen, Germany, 10 piston strokes at 500 revolutions per minute (rpm)) and then centrifuged for 10 minutes at 1,000 g and 4° C. The first supernatant was collected and the sediment again homogenised with ice cooling with 5 mmol/l of TRIS-acetate buffer, 0,32 mol/l of sucrose, pH 7.4 (5 ml/g of original fresh weight of rat cerebral cortex and hippocampus) with the Potter homogeniser (10 piston strokes at 500 rpm) and centrifuged for 10 minutes at 1,000 g and 4° C. The resultant supernatant was combined with the supernatant from the first centrifugation and centrifuged at 17,000 g for 20 minutes at 4° C. The supernatant after this centrifugation was discarded and the membrane sediment was resuspended with 5 mmol/l of TRIS-acetate buffer, pH 8.0 (20 ml/g of original fresh weight) and homogenised with 10 piston strokes at 500 rpm.
The membrane homogenate was then incubated for 1 hour at 4° C. and centrifuged for 30 minutes at 50,000 g and 4° C. The supernatant was discarded and the centrifuge tubes containing the membrane sediment were sealed with Parafilm and frozen for 24 hours at −20° C. On the following day, the membrane sediment was thawed and resuspended with ice-cold 5 mmol/l TRIS-acetate buffer, 0,1% saponin (wt./vol.), pH 7.0 (10 ml/g of original fresh weight) and homogenised with 10 piston strokes at 500 rpm and then centrifuged for 20 minutes at 50,000 g and 4° C. The resultant supernatant was discarded and the sediment resuspended in a small volume with 5 mmol/l of TRIS-acetate buffer, pH 7.0 (approx. 2 ml/g of original fresh weight) and again homogenised with 10 piston strokes at 500 rpm. After determination of the protein content, the membrane homogenate was adjusted with 5 mmol/l TRIS-acetate buffer, pH 7.0, to a protein concentration of 10 mg of protein/ml and frozen in aliquots until used for testing.
The receptor binding test was performed by thawing aliquots, diluting them 1:10 with 5 mmol/l TRIS-acetate buffer, pH 7.0, homogenising them with ice-cooling with 10 piston strokes at 500 rpm with the Potter homogeniser and centrifuging them for 60 minutes at 55,000 g at 4° C. The supernatant was decanted and the membrane sediment adjusted with ice-cold 50 mmol/l TRIS-acetate buffer, pH 7.0, to a protein concentration of 1 mg/ml and again homogenised with 10 piston strokes at 500 rpm and kept in suspension in an ice bath with stirring on a magnetic stirrer. This membrane homogenate was used in the receptor binding test in a quantity of 100 μl per 1 ml batch (0.1 mg of protein/ml in the final batch).
In the binding test, 50 mmol/l TRIS-acetate buffer pH 7.0 was used as the buffer and 1 nmol/l of (^3H)-MDL 105.519 was used as the radioactive ligand, as described in the above-stated literature reference by B. M. Baron et al. The level of non-specific binding was determined in the presence of 1 mmol/l of glycine.
In further batches, the compounds of the general formula I according to the invention were added in concentration series and the displacement of the radioactive ligand from its specific binding at the glycine-binding site of the NMDA receptor channel was determined. […]

By inhibition is commonly meant the drop in the measured response relative to a control, in per cent. High values mean a response far below the control, low ones a response near the control. A word on the Ki: it is a dissociation constant, usually derived from enzyme kinetics or from competition with a known ligand. Read a low Ki as a stronger hold on the target.

Regarding `CC1(c2ccccc2)CC(Nc2cc(Cl)cc(Cl)c2)C(=O)O1` (stereo not shown) [Example 12, 3-(3,5-Dichloro-phenylamino)-5-methyl-5-phenyl-dihydro-furan-2-one], at 10 µM the inhibition was 80% and the Ki came to 800 nM.

Turning to `CC1(c2ccc(F)cc2)CC(Nc2cc(Cl)cc(Cl)c2)C(=O)O1` (stereo not shown) [Example 13, 3-(3,5-Dichloro-phenylamino)-5-(4-fluoro-phenyl)-5-methyl-dihydro-furan-2-one], testing at 10 µM gave an inhibition of 70% and the affinity, expressed as Ki, was 800 nM. `CC1(c2ccc(Cl)cc2)CC(Nc2cc(Cl)cc(Cl)c2)C(=O)O1` (stereo not shown) [Example 25, 5-(4-Chloro-phenyl)-3-(3,5-dichloro-phenylamino)-5-methyl-dihydro-furan-2-one] registered an inhibition at 10 µM of 71% and a Ki of 1300 nM. The molecule `CCCCC1(c2ccccc2)CC(Nc2cc(Cl)cc(Cl)c2)C(=O)O1` (stereo not shown) [Example 108, 5-n-Butyl-3-(3,5-dichlorophenylamino)-5-phenyl-dihydrofuran-2-one] gave an inhibition at 10 µM of 62%.

(Values after patent US6956055B2, “Substituted γ-lactone compounds as NMDA-antagonists” (Grunenthal GmbH, priority 2001, dated 2005).)
